Experimental data published in ChEMBL document CHEMBL1201862, “PubChem BioAssay data set” (2004).
The source made the active and inactive calls.

Key:
[1] = molecular target: T1, E3 ubiquitin-protein ligase XIAP (Homo sapiens, UniProt P98170); experiment: small molecules displacing peptide from XIAP – biochemical, IAP family, fluorescence polarization (AID 1018); type: functional
[2] = molecular target: T1, E3 ubiquitin-protein ligase XIAP; experiment: Counter Screen using XIAP-Bir3 for Chemical Antagonists of Bir1/2 domains of IAP-family anti-apoptotic proteins. [Related pubchem assays (depositor defined):AID1018, AID1449, AID1514, AID1638, AID1749, AID1750, AID488957, AID488963]
[3] = molecular target: T2, Orexin/Hypocretin receptor type 1 (Homo sapiens, UniProt O43613); experiment: Homogeneous Time Resolved Fluorescence (HTRF)-based cell-based high throughput dose response assay for antagonists of the orexin 1 receptor (OX1R; HCRTR1). [Related pubchem assays (depositor defined):AID434989, AID435008, AID463079, AID485270, AID492963, AID492964, AID492965, AID493232, AID504717, AID504718]; type: functional
[4] = molecular target: T2, Orexin/Hypocretin receptor type 1; experiment: Fluorescence-based cell-based high throughput dose response assay for antagonists of the orexin 1 receptor (OX1R; HCRTR1). [Related pubchem assays (depositor defined):AID434989, AID435008, AID463079, AID485270, AID492963, AID492964, AID492965, AID493232, AID504717, AID504718]; type: functional
CHO-K1 = experiment: Counterscreen for antagonists of the orexin 1 receptor (OX1R; HCRTR1): Homogeneous time resolved fluorescence (HTRF)-based cell-based dose response assay to identify antagonists of the parental CHO-K1 cell line. [Related pubchem assays (depositor defined):AID434989, AID435008, AID463079, AID485270, AID492963, AID492964, AID492965, AID493232, AID504699, AID504701]; type: functional; conditions: Cricetulus griseus;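 further: potency for inhibition of ATP-stimulated IP1 production as antagonists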
[5] = viability of uninfected HEp-2 cells – cell-based, HTS, cytotoxicity control for RSV inhibitor project, dose response (AID 2410); type: functional; conditions: human respiratory syncytial virus
[6] = Counterscreen for antagonists of the orexin 1 receptor (OX1R; HCRTR1): Fluorescence-based cell-based high throughput dose response assay to identify antagonists of the parental CHO cell line. [Related pubchem assays (depositor defined):AID434989, AID435008, AID463079, AID485270, AID492963, AID492964, AID492965, AID493232, AID504699, AID504701]; type: functional
[7] = molecular target: T3, Corticotropin-releasing factor receptor 2/Corticotropin-releasing factor-binding protein (Homo sapiens, UniProt P24387+Q13324); experiment: activators of CRF receptor 2 with binding protein – uHTS hits, confirmation (AID 602473); type: functional; conditions: read-out: EC50_Mean
T3 sequence (Q13324 whole entry): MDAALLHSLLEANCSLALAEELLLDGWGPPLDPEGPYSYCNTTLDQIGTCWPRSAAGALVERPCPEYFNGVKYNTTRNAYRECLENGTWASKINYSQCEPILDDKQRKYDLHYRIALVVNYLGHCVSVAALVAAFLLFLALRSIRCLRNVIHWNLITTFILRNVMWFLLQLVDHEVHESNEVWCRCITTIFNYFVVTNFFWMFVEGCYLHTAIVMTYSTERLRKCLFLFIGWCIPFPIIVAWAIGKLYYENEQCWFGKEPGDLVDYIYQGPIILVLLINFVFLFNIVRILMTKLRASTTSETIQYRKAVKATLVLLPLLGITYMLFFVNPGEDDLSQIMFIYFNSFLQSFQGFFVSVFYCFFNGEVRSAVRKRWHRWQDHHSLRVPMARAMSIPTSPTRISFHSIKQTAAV
T3 sequence (P24387 whole entry): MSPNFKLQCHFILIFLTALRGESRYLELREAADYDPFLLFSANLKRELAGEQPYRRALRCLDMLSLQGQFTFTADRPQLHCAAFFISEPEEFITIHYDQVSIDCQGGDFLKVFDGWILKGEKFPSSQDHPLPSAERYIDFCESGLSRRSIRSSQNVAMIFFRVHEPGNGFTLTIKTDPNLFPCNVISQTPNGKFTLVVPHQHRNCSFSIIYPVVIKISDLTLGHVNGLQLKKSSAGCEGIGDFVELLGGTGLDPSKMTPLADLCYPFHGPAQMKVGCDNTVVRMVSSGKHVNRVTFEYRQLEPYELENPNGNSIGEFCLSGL

[8] = blockers of CRF-binding protein–CRF-R2 complex – cell-based, uHTS hits, 384-well, dose response (AID 651639); type: functional, Homo sapiens; conditions: read-out: IC50_Mean
[9] = molecular target: Intestinal-type alkaline phosphatase (Homo sapiens, UniProt P09923); experiment: human intestinal alkaline phosphatase activators, dose response, biochemical, luminescence, uHTS hits (AID 463120); type: functional
[10] = molecular target: T3, Corticotropin-releasing factor receptor 2/Corticotropin-releasing factor-binding protein; experiment: Dose Response confirmation of uHTS hits for small molecule antagonists of the CRF-binding protein and CRF-R2 receptor complex.; type: functional; conditions: read-out: IC50_Mean
[11] = molecular target: T4, Runt-related transcription factor 1/Core-binding factor subunit beta (Homo sapiens, UniProt Q01196+Q13951); experiment: Runt domain/CBFb-SMMHC interaction disruptors – biochemical, TR-FRET (AID 1438); type: protein assay
[12] = molecular target: T4, Runt-related transcription factor 1/Core-binding factor subunit beta; experiment: disruptors of Runt domain/CBFb-SMMHC interaction – biochemical, FRET, Cerulean-Runt, Venus-CBFb-SMMHC, uHTS, […] (AID 1434); type: protein assay
Coagulation factor XII = molecular target: T5, Coagulation factor XII (Homo sapiens, UniProt P00748); experiment: activated coagulation factor XII inhibitor potency, concentration-effect curve, cell-free (AID 716); type: functional
T5 sequence (P00748 whole entry): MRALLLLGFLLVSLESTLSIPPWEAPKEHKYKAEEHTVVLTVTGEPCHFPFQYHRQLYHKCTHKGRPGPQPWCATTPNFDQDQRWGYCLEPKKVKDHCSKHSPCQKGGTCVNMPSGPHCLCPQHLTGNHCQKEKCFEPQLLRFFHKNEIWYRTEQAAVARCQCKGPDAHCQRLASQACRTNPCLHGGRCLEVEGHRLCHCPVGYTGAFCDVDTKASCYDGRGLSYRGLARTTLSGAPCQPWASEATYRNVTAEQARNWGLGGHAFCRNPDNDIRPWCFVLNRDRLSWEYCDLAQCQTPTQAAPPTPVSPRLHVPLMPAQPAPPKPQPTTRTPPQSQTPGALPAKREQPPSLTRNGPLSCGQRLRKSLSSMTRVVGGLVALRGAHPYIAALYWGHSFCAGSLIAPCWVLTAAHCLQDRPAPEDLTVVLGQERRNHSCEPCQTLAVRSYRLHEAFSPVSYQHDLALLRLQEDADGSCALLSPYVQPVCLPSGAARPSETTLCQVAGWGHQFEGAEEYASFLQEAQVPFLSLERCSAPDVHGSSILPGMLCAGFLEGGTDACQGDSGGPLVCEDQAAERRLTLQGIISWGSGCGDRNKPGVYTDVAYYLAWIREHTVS

Cytochrome P450 2C19 = Cytochrome P450 2C19 (Homo sapiens, UniProt P33261); experiment: Cytochrome panel assay with activity outcomes. Panel member name: p450-cyp2c19 Compounds with AC50 equal or less than 10 uM are considered active; type: functional; conditions: read-out: AC50
Cytochrome P450 2D6 = Cytochrome P450 2D6 (Homo sapiens, UniProt P10635);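 further: CYP2D6 member of a cytochrome P450 panel assay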
[13] = non-specific 3'UTR reporter inhibition in Clone20-Shn3RL – cell-based, Renilla luciferase, cherry-picked, counter-screen for Shn3 inhibitor project, dose response (AID 624133); type: functional
Genome polyprotein = Genome polyprotein (dengue virus type 2, UniProt P29990); experiment: flavivirus cap methylation enzyme inhibition – biochemical, confirmation dose response, primary screen (AID 588689); type: functional
[14] = molecular target: Potassium voltage-gated channel subfamily KQT member 2 (Rattus norvegicus, UniProt O88943, W236L); experiment: potentiation of rat KCNQ2 current – cell-based, automated electrophysiology, mechanism study for KCNQ2 potentiator project, dose response (AID 2603); type: functional
Protein RecA = molecular target: T6, Protein RecA (Mycobacterium tuberculosis, UniProt P9WHJ3); experiment: Fluorescence Cell-Free Homogeneous Dose Retest to Identify Inhibitors of RecA-Intein Splicing Activity. [Related pubchem assays (depositor defined):AID2097, AID2223, AID489010, AID492950]; type: functional
T6 sequence (P9WHJ3 whole entry): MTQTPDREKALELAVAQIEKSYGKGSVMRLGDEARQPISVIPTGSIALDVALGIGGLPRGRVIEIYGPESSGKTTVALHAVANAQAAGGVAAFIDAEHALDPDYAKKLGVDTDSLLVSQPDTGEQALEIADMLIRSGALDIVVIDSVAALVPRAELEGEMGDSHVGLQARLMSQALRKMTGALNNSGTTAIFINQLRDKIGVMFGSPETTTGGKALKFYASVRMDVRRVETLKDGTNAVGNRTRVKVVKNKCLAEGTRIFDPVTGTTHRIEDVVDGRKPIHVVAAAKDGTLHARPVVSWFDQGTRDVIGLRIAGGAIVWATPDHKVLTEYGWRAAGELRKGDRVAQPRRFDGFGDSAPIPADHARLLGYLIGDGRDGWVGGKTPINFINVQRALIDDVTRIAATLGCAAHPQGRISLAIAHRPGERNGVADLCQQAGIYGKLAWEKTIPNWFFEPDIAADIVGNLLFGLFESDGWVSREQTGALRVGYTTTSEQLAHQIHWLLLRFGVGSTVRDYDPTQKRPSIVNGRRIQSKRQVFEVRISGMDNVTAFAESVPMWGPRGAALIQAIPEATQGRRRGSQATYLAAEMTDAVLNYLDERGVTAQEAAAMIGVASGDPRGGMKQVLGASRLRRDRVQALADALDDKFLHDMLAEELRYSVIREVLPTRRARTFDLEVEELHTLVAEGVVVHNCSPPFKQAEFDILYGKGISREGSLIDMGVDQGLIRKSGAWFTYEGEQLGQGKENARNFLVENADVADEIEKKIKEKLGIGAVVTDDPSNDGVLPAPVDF

[15] = Intein inhibitors as potential Tuberculosis drugs, a cytotoxicity screen. [Related pubchem assays (depositor defined):AID2221, AID2223, AID434968, AID435010, AID449749, AID449750, AID489010]; type: functional
[16] = molecular target: Hepatocyte nuclear factor 4-alpha (Homo sapiens, UniProt P41235); type: functional, cell-based;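 further: biochemical luminescence-based dose-response counterscreen measuring inhibition of HNF4 dimerization, run alongside a screen for blockers of ABHD5–perilipin-5 interaction; split luciferase complementation of HNF4 fusion proteins in cell lysate measuring dimerization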
[17] = molecular target: T7, Replicative DNA helicase DnaB (Mycobacterium tuberculosis, UniProt P9WMR3); experiment: DnaB intein splicing inhibitors, dose response, biochemical, cell-free fluorescence (AID 449749); type: functional
T7 sequence (P9WMR3 whole entry): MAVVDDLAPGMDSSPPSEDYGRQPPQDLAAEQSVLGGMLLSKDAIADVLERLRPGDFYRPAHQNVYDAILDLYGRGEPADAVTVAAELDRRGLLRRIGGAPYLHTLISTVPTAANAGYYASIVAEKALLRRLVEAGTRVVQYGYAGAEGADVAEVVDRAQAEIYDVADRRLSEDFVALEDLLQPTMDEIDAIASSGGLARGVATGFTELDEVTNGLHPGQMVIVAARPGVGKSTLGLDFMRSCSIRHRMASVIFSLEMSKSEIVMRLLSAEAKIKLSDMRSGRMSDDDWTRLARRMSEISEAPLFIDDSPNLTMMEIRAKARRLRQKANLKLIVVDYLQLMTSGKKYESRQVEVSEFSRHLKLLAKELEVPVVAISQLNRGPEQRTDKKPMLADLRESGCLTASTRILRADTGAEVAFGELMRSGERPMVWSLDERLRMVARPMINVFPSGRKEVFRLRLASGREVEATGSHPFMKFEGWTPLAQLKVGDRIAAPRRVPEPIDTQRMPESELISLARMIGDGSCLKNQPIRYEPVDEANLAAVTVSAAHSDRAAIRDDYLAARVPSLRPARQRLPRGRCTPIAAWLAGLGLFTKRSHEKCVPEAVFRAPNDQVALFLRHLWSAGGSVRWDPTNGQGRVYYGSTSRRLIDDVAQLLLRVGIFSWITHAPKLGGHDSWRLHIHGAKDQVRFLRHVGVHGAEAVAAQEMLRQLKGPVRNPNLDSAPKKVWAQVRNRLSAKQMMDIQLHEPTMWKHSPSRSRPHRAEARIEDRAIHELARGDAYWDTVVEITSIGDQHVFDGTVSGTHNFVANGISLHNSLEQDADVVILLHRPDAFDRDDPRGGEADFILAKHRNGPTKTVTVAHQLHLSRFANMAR

[18] = reduction of Shn3 3'UTR-driven luciferase in osteoblasts – cell-based, Clone20 osteoblasts, firefly luciferase, cherry-picked, dose response (AID 624132); type: functional;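 further: firefly luciferase luminescence from reporter carrying the Shn3 3'UTR in osteoblasts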
Vero = experiment: viability of Vero cells under compound – cytotoxicity control for flavivirus capping enzyme inhibitors (AID 588742); type: functional; conditions: Chlorocebus sabaeus

T1 sequence (P98170 whole entry): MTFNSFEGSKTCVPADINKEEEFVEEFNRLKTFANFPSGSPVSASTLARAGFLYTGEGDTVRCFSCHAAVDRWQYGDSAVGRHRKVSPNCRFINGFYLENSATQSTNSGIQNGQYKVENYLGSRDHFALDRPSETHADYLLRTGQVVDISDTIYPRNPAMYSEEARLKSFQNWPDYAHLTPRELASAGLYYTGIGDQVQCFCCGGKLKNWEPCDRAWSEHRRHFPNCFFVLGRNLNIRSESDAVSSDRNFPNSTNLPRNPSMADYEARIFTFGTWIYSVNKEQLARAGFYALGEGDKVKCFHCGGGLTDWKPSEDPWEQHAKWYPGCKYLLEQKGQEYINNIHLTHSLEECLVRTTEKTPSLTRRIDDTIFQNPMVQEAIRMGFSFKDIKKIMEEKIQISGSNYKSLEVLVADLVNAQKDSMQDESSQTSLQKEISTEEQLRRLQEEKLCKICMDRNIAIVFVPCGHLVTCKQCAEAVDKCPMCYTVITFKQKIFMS
T4 sequence (Q01196 whole entry, the tested form may be a part): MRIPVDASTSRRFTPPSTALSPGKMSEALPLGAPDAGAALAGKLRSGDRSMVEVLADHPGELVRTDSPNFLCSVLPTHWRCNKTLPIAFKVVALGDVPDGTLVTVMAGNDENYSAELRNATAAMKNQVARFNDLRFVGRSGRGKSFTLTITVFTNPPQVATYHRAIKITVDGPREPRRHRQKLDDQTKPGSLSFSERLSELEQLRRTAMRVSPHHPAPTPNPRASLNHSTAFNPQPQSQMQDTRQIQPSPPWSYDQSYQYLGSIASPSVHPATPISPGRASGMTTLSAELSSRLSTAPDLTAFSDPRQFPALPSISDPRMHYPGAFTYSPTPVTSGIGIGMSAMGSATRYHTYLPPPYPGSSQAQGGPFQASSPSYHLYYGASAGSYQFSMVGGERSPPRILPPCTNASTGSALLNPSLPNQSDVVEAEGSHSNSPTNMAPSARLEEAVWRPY
T4 sequence (Q13951 whole entry, the tested form may be a part): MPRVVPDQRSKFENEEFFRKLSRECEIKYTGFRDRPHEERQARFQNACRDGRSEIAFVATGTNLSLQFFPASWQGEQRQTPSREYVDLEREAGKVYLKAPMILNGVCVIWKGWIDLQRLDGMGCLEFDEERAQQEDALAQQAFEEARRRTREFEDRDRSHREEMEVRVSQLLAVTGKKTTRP
T2 sequence (O43613 whole entry): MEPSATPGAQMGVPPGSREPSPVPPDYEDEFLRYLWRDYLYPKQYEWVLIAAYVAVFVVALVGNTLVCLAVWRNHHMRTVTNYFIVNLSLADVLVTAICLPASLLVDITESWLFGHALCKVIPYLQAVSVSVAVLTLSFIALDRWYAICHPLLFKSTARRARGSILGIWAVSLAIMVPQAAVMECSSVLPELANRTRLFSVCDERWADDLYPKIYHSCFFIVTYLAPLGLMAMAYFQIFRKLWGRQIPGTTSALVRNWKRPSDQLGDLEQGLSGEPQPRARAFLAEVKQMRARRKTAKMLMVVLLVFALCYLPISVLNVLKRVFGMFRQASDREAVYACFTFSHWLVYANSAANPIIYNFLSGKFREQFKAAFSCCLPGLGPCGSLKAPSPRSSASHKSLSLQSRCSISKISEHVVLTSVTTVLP
Sequence of Potassium voltage-gated channel subfamily KQT member 2 (O88943 whole entry W236L): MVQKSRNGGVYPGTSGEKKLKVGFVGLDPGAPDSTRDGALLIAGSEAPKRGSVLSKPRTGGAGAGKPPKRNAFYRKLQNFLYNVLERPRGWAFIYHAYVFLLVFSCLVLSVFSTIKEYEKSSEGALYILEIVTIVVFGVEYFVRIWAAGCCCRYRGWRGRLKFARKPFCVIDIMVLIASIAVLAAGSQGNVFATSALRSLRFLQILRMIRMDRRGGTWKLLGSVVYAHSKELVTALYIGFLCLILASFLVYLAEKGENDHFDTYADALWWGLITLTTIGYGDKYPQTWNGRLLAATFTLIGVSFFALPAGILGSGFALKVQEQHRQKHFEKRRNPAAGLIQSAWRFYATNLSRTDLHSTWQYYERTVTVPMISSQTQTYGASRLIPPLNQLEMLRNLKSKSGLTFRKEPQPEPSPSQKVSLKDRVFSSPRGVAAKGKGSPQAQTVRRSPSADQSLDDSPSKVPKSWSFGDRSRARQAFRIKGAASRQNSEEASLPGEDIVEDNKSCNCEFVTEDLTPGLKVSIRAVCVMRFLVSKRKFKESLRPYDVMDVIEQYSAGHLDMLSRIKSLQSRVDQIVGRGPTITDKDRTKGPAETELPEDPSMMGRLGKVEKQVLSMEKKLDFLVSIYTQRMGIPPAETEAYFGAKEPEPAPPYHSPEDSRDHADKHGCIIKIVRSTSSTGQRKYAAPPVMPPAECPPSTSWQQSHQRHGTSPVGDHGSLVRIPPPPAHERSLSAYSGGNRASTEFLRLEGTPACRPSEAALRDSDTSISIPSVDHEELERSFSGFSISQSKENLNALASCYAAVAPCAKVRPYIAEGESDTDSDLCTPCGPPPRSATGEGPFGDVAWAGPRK
Sequence of Genome polyprotein (P29990 2492-3391 limits assumed): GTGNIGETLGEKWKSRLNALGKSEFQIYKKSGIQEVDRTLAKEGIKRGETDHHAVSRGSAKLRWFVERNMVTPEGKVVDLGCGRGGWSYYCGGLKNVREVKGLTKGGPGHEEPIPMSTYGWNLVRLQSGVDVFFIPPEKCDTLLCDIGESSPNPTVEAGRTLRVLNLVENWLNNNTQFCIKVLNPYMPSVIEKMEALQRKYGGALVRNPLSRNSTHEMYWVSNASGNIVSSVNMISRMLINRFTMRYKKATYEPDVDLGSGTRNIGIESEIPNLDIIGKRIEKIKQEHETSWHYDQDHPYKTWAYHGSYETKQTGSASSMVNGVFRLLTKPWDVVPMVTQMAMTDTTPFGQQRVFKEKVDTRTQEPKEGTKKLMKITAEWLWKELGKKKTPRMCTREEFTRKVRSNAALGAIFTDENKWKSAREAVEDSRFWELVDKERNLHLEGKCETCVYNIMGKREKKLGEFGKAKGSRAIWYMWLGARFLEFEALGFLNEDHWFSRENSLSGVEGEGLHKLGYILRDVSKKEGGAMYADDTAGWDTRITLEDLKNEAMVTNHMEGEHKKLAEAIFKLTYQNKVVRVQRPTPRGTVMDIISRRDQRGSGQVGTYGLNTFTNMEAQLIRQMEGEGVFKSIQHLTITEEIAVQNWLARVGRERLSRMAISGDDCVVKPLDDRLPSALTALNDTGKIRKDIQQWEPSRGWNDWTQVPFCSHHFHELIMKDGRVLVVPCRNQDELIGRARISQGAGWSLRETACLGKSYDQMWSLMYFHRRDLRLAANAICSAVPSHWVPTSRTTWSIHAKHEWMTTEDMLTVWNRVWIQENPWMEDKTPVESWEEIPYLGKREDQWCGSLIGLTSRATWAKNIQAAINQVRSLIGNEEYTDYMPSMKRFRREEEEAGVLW
Sequence of Cytochrome P450 2D6 (P10635 whole entry): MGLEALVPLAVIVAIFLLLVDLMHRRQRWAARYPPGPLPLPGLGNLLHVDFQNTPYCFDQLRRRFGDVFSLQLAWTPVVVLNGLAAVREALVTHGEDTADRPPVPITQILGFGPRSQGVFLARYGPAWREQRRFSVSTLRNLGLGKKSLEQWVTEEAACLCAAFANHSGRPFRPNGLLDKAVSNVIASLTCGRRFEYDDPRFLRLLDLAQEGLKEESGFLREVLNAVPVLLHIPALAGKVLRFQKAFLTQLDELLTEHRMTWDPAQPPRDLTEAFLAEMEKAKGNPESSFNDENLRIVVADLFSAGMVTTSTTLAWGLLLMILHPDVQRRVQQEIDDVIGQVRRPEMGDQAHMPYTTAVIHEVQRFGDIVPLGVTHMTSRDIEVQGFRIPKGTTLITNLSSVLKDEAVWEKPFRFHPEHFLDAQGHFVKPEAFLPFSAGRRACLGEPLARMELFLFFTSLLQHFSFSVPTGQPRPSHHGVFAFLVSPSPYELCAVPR
Sequence of Intestinal-type alkaline phosphatase (P09923 whole entry): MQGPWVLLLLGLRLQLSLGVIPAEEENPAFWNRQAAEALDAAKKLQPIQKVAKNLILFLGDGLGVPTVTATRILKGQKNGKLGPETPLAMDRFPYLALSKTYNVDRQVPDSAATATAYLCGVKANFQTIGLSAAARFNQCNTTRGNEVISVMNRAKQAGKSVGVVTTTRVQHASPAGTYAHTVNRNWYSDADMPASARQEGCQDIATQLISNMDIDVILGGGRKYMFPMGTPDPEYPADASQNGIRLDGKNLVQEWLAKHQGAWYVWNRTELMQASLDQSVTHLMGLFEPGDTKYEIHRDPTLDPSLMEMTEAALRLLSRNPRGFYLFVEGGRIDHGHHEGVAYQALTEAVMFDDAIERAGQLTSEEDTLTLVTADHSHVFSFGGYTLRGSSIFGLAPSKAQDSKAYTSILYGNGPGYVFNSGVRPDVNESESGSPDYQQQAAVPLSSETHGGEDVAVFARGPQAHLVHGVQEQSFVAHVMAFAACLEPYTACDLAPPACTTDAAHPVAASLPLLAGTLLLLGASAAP
Sequence of Hepatocyte nuclear factor 4-alpha (P41235 whole entry, the tested form may be a part): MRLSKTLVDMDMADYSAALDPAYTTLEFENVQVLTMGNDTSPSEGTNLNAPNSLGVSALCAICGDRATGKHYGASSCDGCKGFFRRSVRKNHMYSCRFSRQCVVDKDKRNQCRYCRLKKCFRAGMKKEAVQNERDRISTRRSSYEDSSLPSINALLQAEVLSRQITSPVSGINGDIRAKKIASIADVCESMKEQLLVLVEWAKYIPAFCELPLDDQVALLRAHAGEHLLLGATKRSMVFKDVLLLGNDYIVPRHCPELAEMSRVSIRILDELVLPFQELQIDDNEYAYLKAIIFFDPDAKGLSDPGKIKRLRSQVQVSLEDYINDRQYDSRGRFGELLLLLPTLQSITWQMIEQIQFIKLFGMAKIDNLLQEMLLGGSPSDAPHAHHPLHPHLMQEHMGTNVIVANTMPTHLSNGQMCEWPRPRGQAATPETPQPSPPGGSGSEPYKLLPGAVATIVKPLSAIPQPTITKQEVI

COc1ccc(NC(=O)N2CCC(c3nc(-c4cccs4)no3)CC2)cc1
IC50 [1]: > 100 µM (not active)
IC50 [2]: > 100 µM (inactive)

Cc1cc(C)cc(NC(=O)C2CCCN2S(=O)(=O)c2cccc3cccnc23)c1 (stereo not given)
IC50 [3]: 0.244 µM (active)
IC50 [4]: 3.03 µM (active)
IC50 (CHO-K1): > 66.2 µM (inactive)
CC50 [5]: 32.9 µM (active)
IC50 [6]: > 49.7 µM (inactive)

O=C(NNc1ncnc2c1cnn2-c1ccc(F)cc1)c1ccco1
EC50 [7]: > 53 µM (inactive)
IC50 [8]: > 20 µM (inactive)
EC50 [9]: 7.17 µM (active)
IC50 [10]: < 0.368 µM (active)

CN1c2ccsc2C(O)=C(C(S)=Nc2ccc(F)c(Cl)c2)S1(=O)=O
IC50 [11]: > 100 µM (inactive)
IC50 [12]: > 100 µM (inactive)

CCS(=O)(=O)N1CCC(C(=O)NCc2ccc(F)cc2Cl)CC1
IC50 (Coagulation factor XII): > 50 µM (inactive)
AC50 (Cytochrome P450 2C19): 39.8 µM (inconclusive)
AC50 (Cytochrome P450 2D6): 14.1 µM (inconclusive)

CSc1nnc(NC(=O)c2nc(S(=O)(=O)Cc3cccc(C)c3)ncc2Cl)s1
AC50 [13]: 11.5 µM (active)
IC50 (Genome polyprotein): 44.5 µM (active)
EC50 [14]: 1.83 µM (active)
EC50 (Protein RecA): 3.16 µM (active)
CC50 [15]: 26.7 µM (active)
IC50 [16]: 4.45 µM (active)
AC50 [17]: 3.49 µM (active)
AC50 [18]: 4.03 µM (active)
CC50 (Vero): 24.9 µM (active)
